# Publication PMC4682775, “A Novel Vasoactive Proline-Rich Oligopeptide from the Skin Secretion of the Frog Brachycephalus ephippium” (PLoS ONE, 2015)
# Like-named read-outs stand apart in the source and are kept apart here. Non-standard residues stand in square brackets, D forms with d. No end group written: not given here. pGlu = O=C1CC[C@@H](C(=O)O)N1
# Key:
# ACE = target: T1, ACE (Rattus norvegicus, UniProt P47820); test: biochemical; set-up: species or system rat (Wistar rat serum); conditions: rat serum ACE; 1.0 mM hippuryl-His-Leu-OH, 20 mM Tris-HCl pH 8.1, 0.3 M NaCl, 37°C, 30 min, duplicate; inhibitor 0.05 to 50 μM; non-linear regression; read-out: IC50, ACE inhibition
# T1 construct: 20 μL of enzyme-containing serum; from tissue; host or cells: fresh Wistar rat serum
# T1 sequence (P47820 36-1313): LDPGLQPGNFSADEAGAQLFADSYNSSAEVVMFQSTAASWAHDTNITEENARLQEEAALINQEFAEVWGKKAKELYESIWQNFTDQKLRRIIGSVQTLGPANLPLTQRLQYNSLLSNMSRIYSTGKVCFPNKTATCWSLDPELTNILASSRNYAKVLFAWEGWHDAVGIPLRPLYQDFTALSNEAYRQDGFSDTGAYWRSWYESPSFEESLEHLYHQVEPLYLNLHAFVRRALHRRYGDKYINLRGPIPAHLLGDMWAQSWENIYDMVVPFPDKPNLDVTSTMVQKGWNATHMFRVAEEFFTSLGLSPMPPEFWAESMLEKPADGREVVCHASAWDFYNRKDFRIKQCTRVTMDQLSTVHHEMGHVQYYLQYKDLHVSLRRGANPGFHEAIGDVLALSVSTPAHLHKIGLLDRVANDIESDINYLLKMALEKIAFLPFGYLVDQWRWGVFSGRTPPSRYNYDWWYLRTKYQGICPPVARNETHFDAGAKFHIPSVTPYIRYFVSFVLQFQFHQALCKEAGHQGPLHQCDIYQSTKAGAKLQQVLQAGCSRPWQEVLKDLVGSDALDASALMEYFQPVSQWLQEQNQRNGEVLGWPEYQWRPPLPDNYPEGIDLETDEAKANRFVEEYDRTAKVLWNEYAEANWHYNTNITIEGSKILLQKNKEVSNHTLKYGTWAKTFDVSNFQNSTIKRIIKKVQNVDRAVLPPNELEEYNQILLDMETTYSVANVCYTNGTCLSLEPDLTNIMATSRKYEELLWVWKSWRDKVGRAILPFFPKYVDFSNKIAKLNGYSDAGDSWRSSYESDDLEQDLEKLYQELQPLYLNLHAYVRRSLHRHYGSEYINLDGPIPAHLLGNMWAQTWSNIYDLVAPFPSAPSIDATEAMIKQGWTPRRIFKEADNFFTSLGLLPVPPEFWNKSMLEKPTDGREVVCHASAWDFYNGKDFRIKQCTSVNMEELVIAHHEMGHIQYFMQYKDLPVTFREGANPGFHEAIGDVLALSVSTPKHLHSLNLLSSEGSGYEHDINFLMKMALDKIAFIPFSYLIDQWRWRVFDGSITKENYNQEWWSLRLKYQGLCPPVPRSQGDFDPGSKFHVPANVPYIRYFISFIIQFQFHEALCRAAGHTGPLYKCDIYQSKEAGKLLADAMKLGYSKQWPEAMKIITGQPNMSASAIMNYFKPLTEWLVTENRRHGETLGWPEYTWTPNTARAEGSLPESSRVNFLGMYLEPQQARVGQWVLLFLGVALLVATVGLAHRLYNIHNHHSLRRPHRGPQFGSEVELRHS
# Method: Fresh Wistar rat serum was used as source of ACE in these reactions, and the product H-His-Leu-OH was measured fluorimetrically following derivatization with o-phtaldialdehyde, as described [24, 25]. Reactions were carried out, in duplicate, at 37°C for 30 min in 200 μL of 20 mM Tris-HCl buffer, pH 8.1, 0.3 M NaCl, 1.0 mM H-hippuryl-His-Leu-OH, 20 μL of enzyme-containing serum and different inhibitor concentrations as described above.
# HUVECs = conditions: 10^−12 to 10^−5 M, 24 hours, MTT 4 hours, n = 3
# rat thoracic aorta = test: tissue or blood; set-up: species or system rat (male Wistar)
# Method: Male Wistar rats (250 ± 30 g) were maintained under controlled temperature (22 ± 1 ≡C), 12/12 h light/dark cycle, and had free access to water and food (Purina-Nestlé, São Paulo, SP, Brazil). Rat thoracic aortic rings were prepared according to Silva-Filho and colleagues. Briefly, aortic rings (3–4 mm) were maintained in Krebs solution (in mM: NaCl, 118.0; KCl, 4.6; CaCl2.2H2O, 2.5; MgSO4.7H2O, 5.7; NaHCO3, 25.0; KH2PO4.H2O, 1.1; and D-glucose, 11.0) under isometric tension of 1.0 g, 37°C and bubbled with 5% CO2 in 95% O2. […]. Time control contractions induced by PE, but without adding drug were obtained in parallel with other vascular segments.
# The IC50 values for the ACE activity and the pD2 values for the vasodilator curves were obtained by non-linear regression. All values were expressed as means ± SEM, and significances for compared values were analyzed by Student’s “t” test or One-way ANOVA followed by Bonferroni’s post-test. All procedures were performed using Graph Pad Prism 5.02™ (Graph Pad Software, Inc., San Diego, CA, USA).
# VSMCs = conditions: rat aortic VSMCs; 10^−12 to 10^−5 M, 24 hours, MTT 4 hours, n = 3
# rat aorta = conditions: cited from earlier work
# Source text: […]. NO is an important endothelium-derived vasodilator and is pivotal in several biological processes. The increase in NO production plays a pivotal role in the cardiovascular effects of BPPs.
# HEK293 cells = conditions: chemiluminescence assay, ref [15],[17]; cited from earlier work
# Source text: It is essentially non-fluorescent until it reacts with NO to form a highly fluorescent benzotriazole. ...
# [1] = cited from earlier work
# [2] = test system: M1 muscarinic receptor and B2 bradykinin receptor; conditions: ref [15]; cited from earlier work
# M3 muscarinic receptors = conditions: ref [17]; cited from earlier work
# human hypertension = conditions: parenteral administration, in contrast to oral administration; ref [10]; cited from earlier work
# Source text: The Bj-BPP-5a was the first BPP for which the amino acid sequence was described. Bj-BPP-5a is present in hydroalcoholic extracts of the snake venom Bothrops jararaca. […] Captopril was the fir ...
# [3] = test system: argininosuccinate syntethase enzyme (AsS); conditions: followed by increased L-arginine levels and formation of NO; ref [14]; cited from earlier work
compound,measurement,setting,value
WPPPKVSP-NH2 [BPP-BrachyNH2],IC50,ACE,8.2 µM
same,cell viability / cytotoxicity,HUVECs,No cytotoxic effects were observed
same,reversibility / lethality to vascular cells,"rat thoracic aorta; after wash and 30 min stabilization, new PE contraction, data not shown",reversible and non-lethal to vascular cells
same,cell viability / cytotoxicity,VSMCs,No cytotoxic effects were observed
<EKWAP [Bj-BPP-5a],vasodilatory effects,"rat aorta; in vitro and in vivo, ref [45] (TsHpt-I), [16] and [15] (Bj-BPP-5a)",vasodilatory effects
same,endothelium-dependent relaxation,"rat aorta; rat aorta, ref [16],[45]",endothelium-dependent relaxations sensitive to eNOS inhibition
same,NO release,HEK293 cells,increase NO release
same,antihypertensive effect,"[1]; NO dependence, ref [16]",NO-dependent anti-hypertensive effect
same,receptors on which increment of NO production depends,[2],depends on M1 muscarinic receptor and B2 bradykinin receptor activation
<EGGWPRPGPEIPP ([pGlu]GGWPRPGPEIPP) [Bj-BPP-13a],receptors to which increase of NO production is related,M3 muscarinic receptors,related to the M3 muscarinic receptors activation
<EWPRPQIPP (N-terminal pyroglutamate) [Bj-BPP-9a],benefit in treatment of human hypertension,human hypertension,showed benefits
C[C@H](CS)C(=O)N1CCC[C@H]1C(=O)O [captopril],Emax,"rat thoracic aorta; Rattus norvegicus, endothelium intact (E+), phenylephrine 3 × 10^−7 M, 10^−9–3 × 10^−5 M cumulative, Krebs 37°C, means ± SEM, n = 6, read-out: Emax (relaxation)",32.1 ± 4.2%
same,vasodilatation (result in words),rat thoracic aorta; endothelium dependence,endothelium-dependent vasodilatation
same,"vasodilatation, captopril and BPP-BrachyNH2 compared",rat thoracic aorta; result in words,equipotent and of the same magnitude
<ENWPHPQIPP ([pGlu]NWPHPQIPP) [Bj-BPP-10c],argininosuccinate syntethase (AsS) activation,[3],activation of the argininosuccinate syntethase enzyme (AsS)
same,antihypertensive effect,"[1]; result in words, ref [13]",ACE-independent antihypertensive effect
